From US9096853B2, “Modified siRNA molecules incorporating 5-fluoro-2′-deoxyuridine residues to enhance cytotoxicity” (U.S. Department of Veterans Affairs, priority 2012, dated 2015)
Strand notation (5' to 3'): a small letter for the sugar, then the base; units joined by * are phosphorothioate-linked, units joined directly phosphodiester-linked; [ ] holds rarer units or linkages, { } end groups; capitals alone tell only the bases. [5FU] = 5-fluoro-2'-deoxyuridine (FdU); d = 2'-deoxy (DNA); r = 2'-OH (RNA)

What was measured:
[1] = test system: thymidylate synthase (TS) protein; experiment: Immunoblot analysis of TS protein (free and ITC-bound), Odyssey quantitation; type: cell-based, human; conditions: RKO cells, 5 nM for 6 hr
[2] = test system: human colon cancer RKO cell line; experiment: Cell proliferation assay (WST-1) in RKO cells; type: cell-based; conditions: for IC50: 6 hr exposure then 96 hr growth, mean ± S.D., at least 3 experiments; for effect on cell proliferation / cytotoxicity (in words): WST-1
Procedure: RKO cells were plated in 96-well plates at a density of 800 cells/well. On the following day, cells were incubated with ssiRNA/LF2000 complexes for 6 hr, after which time, the growth medium was replaced, and cells were grown for an additional 96 hr. Similarly, RKO cells were treated with FdU (#F0503, Sigma) for 6 hr followed by medium replacement and then allowed to grow for an additional 96 hr. Cell proliferation/viability was quantified by the WST-1 assay (Roche; Indianapolis, Ind.).

[3] = test system: human colon cancer RKO cell line; experiment: Clonogenic assay in RKO cells; type: cell-based; conditions: for IC50: 6 hr exposure, colonies counted after 8 days, mean ± S.D., at least 3 experiments
Procedure: RKO cells were plated in 6-well plates at a density of 600 cells/well. On the following day, cells were transfected with ssiRNA/LF2000 complexes for 6 hr after which time, the growth medium was replaced. Similarly, FdU was added to wells for 6 hr followed by medium replacement. After 8 days, cell colonies were fixed with Trypan blue solution (75% methanol/25% acetic acid/0.25% trypan blue), washed, and air-dried before counting colonies >50 cells.

[4] = test system: thymidylate synthase (TS) protein; experiment: Immunoblot analysis of TS protein (free and ITC-bound), Odyssey quantitation; type: cell-based, human; conditions: RKO cells, ssiRNA 1 nM, 48 hr; for Free TS (%) / ITC-Bound TS (%): normalized to free TS protein in mock-transfected cells (LF2000) set to 100%, mean ± S.D., 6 experiments
Procedure: FIGS. 1A-B illustrate the effect of FdU incorporation in ssiRNA on TS protein expression. RKO cells were transfected with TS6 ssiRNAs (1 nM) containing various 3′-overhangs. After 6 hr, the medium was replaced. After an additional 48 hr, cells were harvested and processed for immunoblot and qPCR analysis as described in the Materials and Methods section. (A) Representative blot from 4 experiments. (B) All qPCR values represent the mean±S.D. from at least 3 separate experiments performed in triplicate. The normalized amount of TS mRNA from mock-transfected cells (LF2000) was set to 1.0 and all other values compared against that value. ITC, inhibitory ternary complex;
Cells were plated at a density of 1.5×10^5 cells/well. On the following day, ssiRNAs were complexed with Lipofectamine 2000 (LF2000, Invitrogen) in serum-free RPMI-1640 medium and added to the plated cells. After 48 hr, cells were rinsed with PBS and scraped in cell lysis buffer (10 mM Tris pH7.4, 150 mM NaCl, 1 mM EDTA, 1% IGEPAL, 0.5% sodium deoxycholate, and 0.1% SDS) containing freshly added Protease Inhibitor Cocktail (Sigma; St. Louis, Mo.), 1 mM phenylmethylsulfonyl fluoride, and phosphatase inhibitors (Sigma). Lysates were sonicated and then centrifuged at 14,000 rpm for 30 min at 4° C. to remove debris. Cell lysates were stored at −80° C. for future use. For mRNA analysis, total RNA was extracted using Trizol (Invitrogen) and stored at −80° C. for future use.
Protein concentrations of cell lysates were determined using the DC Protein Assay (Bio-Rad; Hercules, Calif.). Equal amounts of protein (30 μg) from each cell lysate were resolved on SDS-PAGE using the method of Laemmli (Reference 19) and transferred onto 0.45 μm nitrocellulose membranes (Bio-Rad). Membranes were blocked and incubated overnight with primary antibodies at 4° C. The following antibodies were used in the experiments: anti-TS (Clone 4H4B1; Invitrogen), anti-TS (#5449; Cell Signaling; San Francisco, Calif.), anti-p21 Waf1/Cip1 (#2947; Cell Signaling), anti-p53 (#sc-126; Santa Cruz Biotechnology; Santa Cruz, Calif.), anti-PARP (#9542; Cell Signaling), anti-Fas (#4233; Cell Signaling), anti-phospho-histone H2A.X (Ser139) (#2577; Cell Signaling), anti-histone H2A.X (#7631; Cell Signaling), anti-phospho-ATM (pS1981; EPITOMICS Inc.; Burlingame, Calif.), anti-ATM (#A1106; Sigma), and anti-α-tubulin (EMD Biosciences; San Diego, Calif.). After multiple TBST washes (1×TBS, 0.1% Tween-20), membranes were incubated with corresponding horseradish peroxidase-conjugated secondary antibodies (Bio-Rad) for 1 hr at room temperature. Proteins were detected by the enhanced chemiluminescence method (SuperSignal West Pico substrate; Pierce; Rockford, Ill.). Quantitation of signal intensities was performed by densitometry on a Xerox scanner using NIH IMAGEJ software.
Immunoblots were prepared as described above. After incubation with anti-TS polyclonal antibody, membranes were blocked with the Odyssey blocking buffer and incubated with IRDye 800CW goat anti-rabbit antibody (LI-COR Biosciences; Lincoln, Nebr., USA) according to the manufacturer instructions. The fluorescent signal was detected and quantified using the Odyssey infrared imaging system (LI-COR).

[5] = test system: TS6 siRNA target sequence (TS mRNA nt 1058-1077) targeted by the antisense strand; experiment: Luciferase assay, vector with TS6 target site for the antisense strand; type: cell-based, human; conditions: RKO cells, ssiRNA 0.1 nM, 24 hr
Procedure: (§1) FIG. 3 illustrates the effect of 3′-end modification on ssiRNA strand selection. RKO cells were transfected with luciferase vectors (including the TS6 target site for either the antisense (open bars) or sense strand (hatched bars)) in combination with ssiRNAs containing different 3′-end overhangs. After 24 hr, cells were harvested and luciferase activity was determined as described in the Materials and Methods section. Firefly/renilla luciferase activity from vector-alone transfection was normalized to 100%. All values represent the mean±S.D. from at least 4 separate experiments performed in duplicate;
(§2) FIGS. 4A-C illustrate the effect of 3′-end dU incorporation on ssiRNA strand selection. RKO cells were transfected with various TS6 ssiRNAs (1 nM) for 6 hr. After an additional 48 hr, cells were harvested for immunoblot (A) and qPCR (B) analysis. (C) Luciferase vectors (containing the siRNA target site for either the sense or antisense strand) were transfected into RKO cells in combination with different ssiRNAs. After 24 hr, cells were harvested and luciferase activity was determined as described in the Materials and Methods section. Luciferase activity from vector-alone transfection was normalized to 100%. All values represent the mean±S.D. from at least 4 separate experiments performed in duplicate;
(§3) A DNA oligonucleotide corresponding to the TS6 siRNA target sequence (TS mRNA nt 1058-1077: 5′-[…]-3′- SEQ ID NO: 23) was annealed to its complimentary antisense sequence and ligated into the pGL3-Promoter plasmid (Promega; Madison, WI) at restriction sites Hind III and Nco I. The luciferase mRNA expressed from this plasmid was targeted by the antisense strand of TS6 siRNA. A second plasmid was constructed with the TS mRNA sequence inserted in the opposite orientation so that it could be targeted by the sense or passenger strand of TS6 siRNA. […] After 24 hr, cells were washed with PBS, lysed in 1×PLG buffer, and firefly and renilla luciferase levels were determined by the Dual-Luciferase™ Reporter Assay system (Promega). […]

[6] = test system: TS mRNA sequence in opposite orientation targeted by the sense (passenger) strand; experiment: Luciferase assay, vector with TS6 target site for the sense strand; type: cell-based, human; conditions: RKO cells, ssiRNA 0.1 nM, 24 hr
Procedure: as §1, §2, §3

O=c1[nH]cc(F)c(=O)[nH]1 [5-FU, 5-fluorouracil, reference compound]
formation of the ITC after incubation with 5-FU [1]: did not result in formation of the ITC

O=c1[nH]c(=O)n([C@H]2C[C@H](O)[C@@H](CO)O2)cc1F [FdU (TS inhibitor), 5-fluoro-2′-deoxyuridine]
IC50 ([2]; Homo sapiens): 6.93 ± 2.08 nM
IC50 ([3]; Homo sapiens): 7.42 ± 1.33 nM

Mis-dU/dA: unmodified mismatched control ssiRNA; SEQ ID NO: 19 and 20 (chain 1 GGAUACUGCCAAUCUCUAGGUUUUU; chain 2 CCUAGAGAUUGGCAGUAUCCAAAAA; chain 1: sugars from the 5' end r20 d5, backbone and T or U not given here; chain 2: sugars from the 5' end r20 d5, backbone not given here) [reference compound]
effect on cell proliferation / cytotoxicity (in words) [2]: no effect
Free TS (%) [4]: 90.1 ± 14.0%
effect on clonogenic growth (in words) [3]: no effect

TS6-1xF-dU/dA: ssiRNA with a single FdU residue at the 4th position in the sense strand; SEQ ID NO: 5 and 6 (chain 1 GGAUAUUGUCAGUCUUUAGGUUUUU; chain 2 CCUAAAGACUGACAAUAUCCAAAAA; FdU at position 4 of sense strand, chemistry not fully specified)
enhancement of IC50 versus TS6-dU/dA, cell growth (WST-1) assay [2]: ~30 fold
IC50 [2]: 2.85 ± 0.83 nM
effect on TS protein expression (in words) [4]: significantly inhibited
Free TS (%) [4]: 27.3 ± 8.3%
ITC-Bound TS (%) [4]: 4.4 ± 2.6%
fold lower IC50 (greater potency) versus TS6-dU/dA, clonogenic assay [3]: 5 fold
IC50 [3]: 0.34 ± 0.08 nM

TS6-2xF-dU/dA: ssiRNA with FdU on positions 16 and 18 of the antisense strand; SEQ ID NO: 17 and 18 (chain 1 GGAUAUUGUCAGUCUUUAGGUUUUU; chain 2 CCUAAAGACUGACAAUAUCCAAAAA; chain 1: sugars from the 5' end r20 d5, backbone not given here; chain 2: sugars from the 5' end rrrrrrrrrrrrrrrdrdrrddddd, [5FU] at 16, 18, backbone not given here)
Free TS (%) [4]: 54.1 ± 14.1%
ITC-Bound TS (%) [4]: 15.4 ± 9.5%

TS6-3xF-dU/dA: ssiRNA with FdU replacing U at positions 10, 16 and 18 in the antisense strand; SEQ ID NO: 15 and 16 (chain 1 GGAUAUUGUCAGUCUUUAGGUUUUU; chain 2 CCUAAAGACUGACAAUAUCCAAAAA; FdU at antisense positions 10, 16, 18, chemistry not fully specified)
Free TS (%) [4]: 73.6 ± 14.7%
ITC-Bound TS (%) [4]: 26.2 ± 10.7%

TS6-FdU/FdU: TS-targeted ssiRNA, both 3′-ends modified with FdU; SEQ ID NO: 13 and 14 (chain 1 rGrGrArUrArUrUrGrUrCrArGrUrCrUrUrUrArGrGd[5FU]d[5FU]d[5FU]d[5FU]d[5FU]; chain 2 rCrCrUrArArArGrArCrUrGrArCrArArUrArUrCrCd[5FU]d[5FU]d[5FU]d[5FU]d[5FU])
IC50 [2]: 0.77 ± 0.12 nM
IC50 [3]: 0.43 ± 0.16 nM
reduced efficacy as compared to TS6-FdU/dA, clonogenic assay ([3]; p=0.01): 2 fold

TS6-UU: standard TS6 siRNA with two uridine overhangs, TS-targeted; SEQ ID NO: 1 (sense) and 2 (antisense) (sense GGAUAUUGUCAGUCUUUAGGUU; antisense CCUAAAGACUGACAAUAUCCUU; RNA, backbone not given here)
antisense strand targeting, luciferase (in words) [5]: suppressed
sense strand targeting, luciferase (in words) [6]: suppressed

TS6-dA/FdU: TS-targeted ssiRNA with FdU modification of the 3′-end of antisense strand; SEQ ID NO: 11 and 12 (chain 1 GGAUAUUGUCAGUCUUUAGGAAAAA; chain 2 CCUAAAGACUGACAAUAUCCUUUUU; chain 1: sugars from the 5' end r20 d5, backbone not given here; chain 2: sugars from the 5' end r20 d5, [5FU] at 21, 22, 23, 24, 25, backbone not given here)
IC50 [2]: 1.27 ± 0.32 nM
effect on cell proliferation / cytotoxicity (in words) [2]: significantly less effective
less targeting by the antisense strand [5]: 2 fold
effect on TS protein expression (in words) [4]: reduced the ability
Free TS (%) [4]: 48.0 ± 18.6%
ITC-Bound TS (%) [4]: 30.6 ± 15.6%
sense strand targeting, luciferase (in words) [6]: enhanced
effect on clonogenic growth (in words) [3]: significantly less effective
IC50 [3]: 0.4 ± 0.2 nM
